Reference: US12076307B2, “Compositions for prevention or treatment of acute radiation syndrome and other radiation exposure” (priority 2017, dated 2024)
Several values for one entry are separate records, joined by “and”; a condition that tells them apart may be missing. Identical values can stand only once.

What was measured:
Assay type in all cases: in vivo, mouse
[1] = tested on: C57BL/6J mice, 680 cGy TBI; experiment: 30-day survival in C57BL/6J mice after LD70/30 (680 cGy) TBI; conditions: for Dead/Moribund, Females (percent) / Dead/Moribund, Males (percent): N=24; for Dead/Moribund, All Animals (percent): N=48
Description: The objective of this study was to evaluate the 30-day survival benefit of EC-18 in male and female C57BL/6J mice when administered by daily oral gavage at doses ranging from 100-375 mg/kg/day, for 30 consecutive days beginning approximately 24 hrs after a single LD70/30 dose (680 cGy) of TBI. The study had 4 dose groups, each with 24 animals of each sex, Group 1 animals were administered sterile PBS, Groups 2, 3, and 4 were administered EC-18 at 100, 250, and 375 mg/kg/day, respectively. Dose volumes were determined using the most recently recorded body weight. Survival was monitored for 30 days post irradiation, with early removal criterion used to determine morbidity. Clinical observations were recorded daily before administration of vehicle or test article. […] Body weights were recorded minimally 3 times per week, daily for animals with weight loss of ≥15%, or twice daily for animals with ≥20% weight loss.

Balb/c mice, 6.11 Gy TBI = experiment: Dosing schedule optimization (delayed treatment) in LD70/30 model
Description: EC-18 was administered daily in-life with its optimal dosage (250 mg/kg) at 0, 1, 2, and 3 days after irradiation on Day 0. To examine the durable efficacy of EC-18, the survival was examined 15 days after the in-life phase without the daily treatment of EC-18.
EC-18 was administered daily in-life with its optimal dosage (250 mg/kg) at 0, 1, 2, and 3 days after irradiation on Day 0. The survival rate of the γ-radiation only group was 35%. The percentages of survival of the irradiated mice with EC-18+0d, +1d, +2d, and +3d were 80, 70, 55, and 80%, respectively (FIG. 72).

[2] = tested on: Balb/c mice, 1 Gy gamma radiation + 5-Fluorouracil + tongue scratch; experiment: Radiation-induced oral mucositis ARS model: survival, mucositis, blood neutrophils; conditions: PLAG 250 mg/kg/day oral
Description: In order to further confirm the effect of PLAG on the acute radiation syndrome, an animal model of radiation-induced oral mucositis was prepared and tested as an acute radiation syndrome animal model with severer conditions than those in Example 1 above. First, Balb/c mice (8-week-old female) were purchased from Koatech (Republic of Korea) and maintained in a specific pathogen-free (SPF) environment to establish a radiation-induced oral mucositis model. In this example, first group of oral mucositis induced group (negative control) was compared to the second group where PLAG was orally administered to animals with induced oral mucositis.
Specifically, mice were exposed to 1 Gy whole body gamma radiation and scars of 0.2 cm on the mice tongue were scratched at 0, 7, 10 and 16 days with the same force and depth using an 18 gauge needle. On day 2 post-irradiation, 5-Fluorouracil (50 mg/kg/day) was intraperitoneally administered and PLAG was administered orally at 250 mg/kg/day for 18 days (Table 2).
Oral mucositis level was determined by counting the ulcer formation and edema of the tongue and the incidence of wound atrophy, and calculating the score of oral mucositis by a total of 5 blinded observers. On the 7th and 10th day, the blood of the experimental groups was collected and the number of neutrophils in the blood was measured by measuring the Complete Blood Count (CBC) using a Mindray BC-5300 auto hematology analyzer (Shenzhen Mindray Bio-medical Electronics, China).

[3] = 6.11 Gy, 250 mg/kg daily starting +0 d
[4] = 6.11 Gy, 250 mg/kg daily starting +1 d
[5] = 6.11 Gy, 250 mg/kg daily starting +2 d
[6] = 6.11 Gy, 250 mg/kg daily starting +3 d
[7] = 6.11 Gy, 250 mg/kg daily starting +3 d, 250 mg/kg

## CCCCC/C=C\C/C=C\CCCCCCCC(=O)OC(COC(C)=O)COC(=O)CCCCCCCCCCCCCCC (stereo not shown) [EC-18, 1-palmitoyl-2-linoleoyl-3-acetylglycerol]
[1]; Group 2, 100 mg/kg/day
  combined sex survival: 21%
  increased survival above vehicle control, females: 29%
[1]; Group 2-4 (100-375 mg/kg/day)
  survival, males: 0-8%
[1]; Group 3, 250 mg/kg/day
  combined sex survival: 25%
  increased survival above vehicle control, females: 46%
[1]; Group 4, 375 mg/kg/day
  combined sex survival: 29%
  increased survival above vehicle control, females: 46%
[1]; Grp 2: 100 mg/kg
  Dead/Moribund, Females (percent): 16 (67%)
  Dead/Moribund, Males (percent): 22 (92%)
  Dead/Moribund, All Animals (percent): 38 (79%)
[1]; Grp 3: 250 mg/kg
  Dead/Moribund, Females (percent): 12 (50%)
  Dead/Moribund, Males (percent): 24 (100%)
  Dead/Moribund, All Animals (percent): 36 (75%)
[1]; Grp 4: 375 mg/kg
  Dead/Moribund, Females (percent): 12 (50%)
  Dead/Moribund, Males (percent): 22 (92%)
  Dead/Moribund, All Animals (percent): 34 (71%)
[1]; any study day
  mean body weights vs vehicle: no statistically significant differences
Balb/c mice, 6.11 Gy TBI; 250 mg/kg, even up to 3-day-delayed treatment regimen
  survival vs negative control: significantly improved
Balb/c mice, 6.11 Gy TBI; 6.11 Gy, 250 mg/kg
  weight loss induced by irradiation: effectively prevented and rapidly recovered weight loss
Balb/c mice, 6.11 Gy TBI; [3]
  No. of mice that survived/total: 16/20
  Survival: 80%
  Survival time of decedents, Median: 24.5 days
Balb/c mice, 6.11 Gy TBI; 6.11 Gy, 250 mg/kg daily starting +0 d, 250 mg/kg
  Survival time of decedents, Mean ± SEM: 25.0 days and 25.0 ± 1.1 days
Balb/c mice, 6.11 Gy TBI; [4]
  No. of mice that survived/total: 14/20
  Survival: 70%
  Survival time of decedents, Median: 23.5 days
Balb/c mice, 6.11 Gy TBI; 6.11 Gy, 250 mg/kg daily starting +1 d, 250 mg/kg
  Survival time of decedents, Mean ± SEM: 23.7 days and 23.7 ± 1.4 days
Balb/c mice, 6.11 Gy TBI; [5]
  No. of mice that survived/total: 11/20
  Survival: 55%
  Survival time of decedents, Median: 18.0 days
Balb/c mice, 6.11 Gy TBI; 6.11 Gy, 250 mg/kg daily starting +2 d, 250 mg/kg
  Survival time of decedents, Mean ± SEM: 18.1 days and 18.1 ± 0.8 days
Balb/c mice, 6.11 Gy TBI; [6]
  No. of mice that survived/total: 11/20
  Survival time of decedents, Median: 23.0 days
Balb/c mice, 6.11 Gy TBI; [7]
  Survival: 80% and 55%
  Survival time of decedents, Mean ± SEM: 22.3 days and 22.3 ± 1.6 days
Balb/c mice, 6.11 Gy TBI; 15 days after the in-life phase without daily treatment
  durable efficacy after withdrawal of EC-18: extended the survival of animals for an extra 15 days
[2]
  oral mucositis score: significantly decreased
  visually confirmed oral mucositis levels vs non-PLAG-treated group: significantly reduced
[2]; days 7 and 10
  neutrophil number in blood: significantly increased
[2]; day 18, n=7
  survival rate: 85%
